The text below walks through data of patent US12479827B2, “Heteroaromatic carboxamide derivatives as plasma kallikrein inhibitors” (Boehringer Ingelheim International GmbH, priority 2020, dated 2025).

In one test the target is T1, Human PKK (Homo sapiens, UniProt P03952).
T1 construct: purchased Enzyme Research Laboratories
Put plainly: Inhibition of PKK using an endpoint assay (human PKK). The test is classed as biochemical. The following applies: fluorogenic substrate H-Pro-Phe-Arg-AMC, 1 h room temperature, method names human or rat PKK, table does not say which. In short, it runs like this: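 Endpoint fluorescence (ex 355 nm, em 460 nm) after stopping with 1 μM final PPACK II. Buffer: Tris 100 mM pH 7.8, NaCl 150 mM, BSA 0.1%, Tween20 0.05%, with 1% DMSO present; enzyme is human plasma kallikrein.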

The target in test [1] is T2, PKK in kaolin activated human platelet poor plasma (Homo sapiens, UniProt P03952).
T2 construct: Platelet poor plasma (PPP) obtained from human wholeblood; from tissue
T2 sequence (P03952 391-638 limits assumed): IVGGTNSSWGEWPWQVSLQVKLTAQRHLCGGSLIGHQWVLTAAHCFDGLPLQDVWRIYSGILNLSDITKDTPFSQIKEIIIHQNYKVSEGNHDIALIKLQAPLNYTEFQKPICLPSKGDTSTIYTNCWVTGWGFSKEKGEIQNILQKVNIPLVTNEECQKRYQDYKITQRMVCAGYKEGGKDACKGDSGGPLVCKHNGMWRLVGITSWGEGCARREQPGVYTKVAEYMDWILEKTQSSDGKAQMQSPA
T2 sequence (P03952 20-390 limits assumed): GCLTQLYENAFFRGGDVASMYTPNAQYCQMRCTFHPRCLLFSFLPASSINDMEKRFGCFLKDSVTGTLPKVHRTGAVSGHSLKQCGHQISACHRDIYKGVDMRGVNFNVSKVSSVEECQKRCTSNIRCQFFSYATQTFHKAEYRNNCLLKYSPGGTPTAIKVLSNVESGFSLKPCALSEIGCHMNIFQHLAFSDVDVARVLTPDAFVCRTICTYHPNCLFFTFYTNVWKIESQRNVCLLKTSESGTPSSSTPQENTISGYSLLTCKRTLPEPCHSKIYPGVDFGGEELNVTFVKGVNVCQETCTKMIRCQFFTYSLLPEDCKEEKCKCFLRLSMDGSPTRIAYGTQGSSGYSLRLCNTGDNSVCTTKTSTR
Put plainly: Inhibition of PKK in kaolin activated human PPP.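 Further: readout is the rate of fluorogenic substrate cleavage in rfu per min.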 It is filed as biochemical. The note with it: 25-750 μg/mL kaolin, global fit, text b200 calls the values IC90. As for the experimental part: Platelet poor plasma (PPP) obtained from human wholeblood, anticoagulated with Na-Citrate, is incubated with various concentrations of the test compound together with either 25, 75, 250, or 750 μg/mL kaolin in assay buffer for 20 min at 37° C. such that for each kaolin dose used a concentration response is obtained for the test compound.

T1 sequence (P03952 20-390 limits assumed): as above
T1 sequence (P03952 391-638 limits assumed): as the sequence (P03952 391-638 limits assumed) above

By IC50 is commonly meant the concentration at which inhibition is half-maximal. For the compound `CCc1nc(N2CC3C(C2)C3(F)F)ccc1Cc1cc(C(=O)N[C@@H]2CCc3c2ncn3C)on1` (stereo partly drawn) [Example 153, 3-[(6-{6,6-Difluoro-3-azabicyclo[3.1.0]hexan-3-yl}-2-ethylpyridin-3-yl)methyl]-N-[(4R)-1-methyl-1H,4H,5H,6H-cyclopenta[d]imidazol-4-yl]-1,2-oxazole-5-carboxamide], the IC50 amounted to 0.5 nM against Human PKK and 280 nM in test [1].
Taken in the same sequence, the figures for `Cc1nc(N2CC3CC3C2)ccc1Cc1ncc(C(=O)N[C@@H]2CCc3c2ncn3C)o1` (stereo partly drawn) [Example 154, 2-[(6-{3-Azabicyclo[3.1.0]hexan-3-yl}-2-methylpyridin-3-yl)methyl]-N-[(4R)-1-methyl-1H,4H,5H,6H-cyclopenta[d]imidazol-4-yl]-1,3-oxazole-5-carboxamide] were 9.9 nM and 4270 nM.
Taken in the same sequence, the figures for `Cc1nc(N2CC3C(C2)C3(F)F)ccc1Cc1ncc(C(=O)N[C@@H]2CCc3c2ncn3C)o1` (stereo partly drawn) [Example 155, 2-[(6-{6,6-Difluoro-3-azabicyclo[3.1.0]hexan-3-yl}-2-methylpyridin-3-yl)methyl]-N-[(4R)-1-methyl-1H,4H,5H,6H-cyclopenta[d]imidazol-4-yl]-1,3-oxazole-5-carboxamide] were 15.4 nM and 4100 nM.
For `CCc1nc(N2CC3CC3C2)ccc1Cc1ncc(C(=O)N[C@@H]2CCc3c2ncn3C)o1` (stereo partly drawn) [Example 158, 2-[(6-{3-Azabicyclo[3.1.0]hexan-3-yl}-2-ethylpyridin-3-yl)methyl]-N-[(4R)-1-methyl-1H,4H,5H,6H-cyclopenta[d]imidazol-4-yl]-1,3-oxazole-5-carboxamide] the same measures were 4.6 nM and 2100 nM.
Consider `Cn1cnc2c1CC[C@H]2NC(=O)c1c[nH]c(Cc2ccc(N3CC4C(C3)C4(F)F)nc2Cl)c1` (stereo partly drawn) [Example 159, 5-[(2-Chloro-6-{6,6-difluoro-3-azabicyclo-[3.1.0]hexan-3-yl}pyridin-3-yl)methyl]-N-[(4R)-1-methyl-1H,4H,5H,6H-cyclopenta[d]imidazol-4-yl]-1H-pyrrole-3-carboxamide], for which the IC50 at Human PKK stood at 3.5 nM; in test [1] it was 1140 nM.
On to `CCc1nc(N2CC3C(C2)C3(F)F)ccc1Cc1cc(C(=O)N[C@@H]2CCc3c2ncn3C)n(C(C)C)n1` (stereo partly drawn) [Example 160, 3-[(6-{6,6-Difluoro-3-azabicyclo[3.1.0]hexan-3-yl}-2-ethylpyridin-3-yl)methyl]-N-[(4R)-1-methyl-1H,4H,5H,6H-cyclopenta[d]imidazol-4-yl]-1-(propan-2-yl)-1H-pyrazole-5-carboxamide], for which the IC50 on Human PKK came to 2.2 nM; in test [1], 967 nM.
For `CCc1nc(N2CC3C(C2)C3(F)F)ccc1Cc1cc(C(=O)N[C@@H]2CCc3c2ncn3C)n(CC)n1` (stereo partly drawn) [Example 161, 3-[(6-{6,6-Difluoro-3-azabicyclo[3.1.0]hexan-3-yl}-2-ethylpyridin-3-yl)methyl]-1-ethyl-N-[(4R)-1-methyl-1H,4H,5H,6H-cyclopenta[d]imidazol-4-yl]-1H-pyrazole-5-carboxamide] the same measures were 1.5 nM and 431 nM.
For `CCc1nc(N2CC3CC3C2)ccc1Cc1cc(C(=O)N[C@@H]2CCc3c2ncn3C)n(CC)n1` (stereo partly drawn) [Example 162, 3-[(6-{3-Azabicyclo[3.1.0]hexan-3-yl}-2-ethylpyridin-3-yl)methyl]-1-ethyl-N-[(4R)-1-methyl-1H,4H,5H,6H-cyclopenta[d]imidazol-4-yl]-1H-pyrazole-5-carboxamide] the same measures were 1.1 nM and 231 nM.
For `CCn1nc(Cc2ccc(N3CC4C(C3)C4(F)F)nc2C)cc1C(=O)N[C@@H]1CCc2c1ncn2C` (stereo partly drawn) [Example 163, 3-[(6-{6,6-Difluoro-3-azabicyclo[3.1.0]hexan-3-yl}-2-methylpyridin-3-yl)methyl]-1-ethyl-N-[(4R)-1-methyl-1H,4H,5H,6H-cyclopenta[d]imidazol-4-yl]-1H-pyrazole-5-carboxamide] the same measures were 2.2 nM and 470 nM.
For the compound `CCn1nc(Cc2ccc(N3CC4CC4C3)nc2C)cc1C(=O)N[C@@H]1CCc2c1ncn2C` (stereo partly drawn) [Example 164, 3-[(6-{3-Azabicyclo[3.1.0]hexan-3-yl}-2-methylpyridin-3-yl)methyl]-1-ethyl-N-[(4R)-1-methyl-1H,4H,5H,6H-cyclopenta[d]imidazol-4-yl]-1H-pyrazole-5-carboxamide], the IC50 on Human PKK stood at 1.8 nM; in test [1], 443 nM.
For `CCc1nc(N2CC3CC3C2)ccc1Cc1cc(C(=O)N[C@@H]2CCc3c2ncn3C)[nH]n1` (stereo partly drawn) [Example 165, 3-[(6-{3-Azabicyclo[3.1.0]hexan-3-yl}-2-ethylpyridin-3-yl)methyl]-N-[(4R)-1-methyl-1H,4H,5H,6H-cyclopenta[d]imidazol-4-yl]-1H-pyrazole-5-carboxamide] the same measures were 0.8 nM and 342 nM.
Consider `CCc1nc(N2CC3CC3C2)ccc1Cc1cc(C(=O)N[C@@H]2CCc3c2ncn3C)n(C)n1` (stereo partly drawn) [Example 166, 3-[(6-{3-Azabicyclo[3.1.0]hexan-3-yl}-2-ethylpyridin-3-yl)methyl]-1-methyl-N-[(4R)-1-methyl-1H,4H,5H,6H-cyclopenta[d]imidazol-4-yl]-1H-pyrazole-5-carboxamide], for which the IC50 against Human PKK was determined as 1 nM; in test [1], 193 nM.
For `Cc1nc(N2CC3C(C2)C3(F)F)ccc1Cc1cc(C(=O)N[C@@H]2CCc3c2ncn3C)n(C)n1` (stereo partly drawn) [Example 167, 3-[(6-{6,6-Difluoro-3-azabicyclo[3.1.0]hexan-3-yl}-2-methylpyridin-3-yl)methyl]-1-methyl-N-[(4R)-1-methyl-1H,4H,5H,6H-cyclopenta-[d]imidazol-4-yl]-1H-pyrazole-5-carboxamide] the same measures were 1.3 nM and 272 nM.
Taken in the same sequence, the figures for `Cc1nc(N2CC3CC3C2)ccc1Cc1cc(C(=O)N[C@@H]2CCc3c2ncn3C)n(C)n1` (stereo partly drawn) [Example 168, 3-[(6-{3-Azabicyclo[3.1.0]hexan-3-yl}-2-methylpyridin-3-yl)methyl]-1-methyl-N-[(4R)-1-methyl-1H,4H,5H,6H-cyclopenta[d]imidazol-4-yl]-1H-pyrazole-5-carboxamide] were 1.5 nM and 1860 nM.
Taken in the same sequence, the figures for `Cc1nc(N2CC3CC3C2)ncc1Cn1cc(C(=O)N[C@@H]2CCc3c2ncn3C)c2cncnc21` (stereo partly drawn) [Example 174, 7-[(2-{3-Azabicyclo[3.1.0]hexan-3-yl}-4-methylpyrimidin-5-yl)methyl]-N-[(4R)-1-methyl-1H,4H,5H,6H-cyclopenta[d]imidazol-4-yl]-7H-pyrrolo[2,3-d]pyrimidine-5-carboxamide] were 1.9 nM and 1430 nM.
For `CCOCc1nc(N2CC3C(C2)C3(F)F)ccc1Cn1cc(C(=O)N[C@@H]2CCc3c2ncn3C)cn1` (stereo partly drawn) [Example 179, 1-[(6-{6,6-Difluoro-3-azabicyclo[3.1.0]hexan-3-yl}-2-(ethoxymethyl)pyridin-3-yl)methyl]-N-[(4R)-1-methyl-1H,4H,5H,6H-cyclopenta[d]imidazol-4-yl]-1H-pyrazole-4-carboxamide], the values for the IC50 (against Human PKK; in test [1]) were 4.2 nM and 389 nM, respectively.
For `COCc1nc(N2CC3CC3C2)ccc1Cn1cnc(C(=O)N[C@@H]2CCc3c2ncn3C)c1` (stereo partly drawn) [Example 180, 1-[(6-{3-Azabicyclo[3.1.0]hexan-3-yl}-2-(methoxymethyl)pyridin-3-yl)methyl]-N-[(4R)-1-methyl-1H,4H,5H,6H-cyclopenta[d]imidazol-4-yl]-1H-imidazole-4-carboxamide] the same measures were 2.6 nM and 207 nM.
In the case of `Cc1nc(N2CC3CC3C2)ccc1Cc1cc(C(=O)N[C@@H]2CCc3c2ncn3C)co1` (stereo partly drawn) [Example 182, 5-[(6-{3-Azabicyclo[3.1.0]hexan-3-yl}-2-methylpyridin-3-yl)methyl]-N-[(4R)-1-methyl-1H,4H,5H,6H-cyclopenta[d]imidazol-4-yl]furan-3-carboxamide], the IC50 on Human PKK came out at 7.1 nM; in test [1] it was 6270 nM.
With `CCc1nc(N2CC3C(C2)C3(F)F)ccc1Cc1ccc(C(=O)N[C@@H]2CCc3c2ncn3C)s1` (stereo partly drawn) [Example 184, 5-[(6-{6,6-Difluoro-3-azabicyclo[3.1.0]hexan-3-yl}-2-ethylpyridin-3-yl)methyl]-N-[(4R)-1-methyl-1H,4H,5H,6H-cyclopenta[d]imidazol-4-yl]thiophene-2-carboxamide], the IC50 against Human PKK came out at 13.5 nM; in test [1], 2310 nM.
Taken in the same sequence, the figures for `Cn1cnc2c1CC[C@H]2NC(=O)c1ccc(Cc2ccc(N3CC4C(C3)C4(F)F)nc2CO)s1` (stereo partly drawn) [Example 185, 5-[(6-{6,6-Difluoro-3-azabicyclo[3.1.0]hexan-3-yl}-2-(hydroxymethyl)pyridin-3-yl)methyl]-N-[(4R)-1-methyl-1H,4H,5H,6H-cyclopenta-[d]imidazol-4-yl]thiophene-2-carboxamide] were 10.9 nM and 2270 nM.
For `CCc1nc(N2CC3C(C2)C3(F)F)ccc1Cc1ccc(C(=O)N[C@@H]2CCc3c2ncn3C)o1` (stereo partly drawn) [Example 186, 5-[(6-{6,6-difluoro-3-azabicyclo[3.1.0]hexan-3-yl}-2-ethylpyridin-3-yl)methyl]-N-[(4R)-1-methyl-1H,4H,5H,6H-cyclopenta[d]imidazol-4-yl]furan-2-carboxamide], the values for the IC50 (against Human PKK; in test [1]) were 10.9 nM and 236 nM, respectively.
For `Cc1nc(N2CC3C(C2)C3(F)F)ccc1Cc1ccc(C(=O)N[C@@H]2CCc3c2ncn3C)s1` (stereo partly drawn) [Example 187, 5-[(6-{6,6-Difluoro-3-azabicyclo[3.1.0]hexan-3-yl}-2-methylpyridin-3-yl)methyl]-N-[(4R)-1-methyl-1H,4H,5H,6H-cyclopenta[d]imidazol-4-yl]thiophene-2-carboxamide], the IC50 against Human PKK worked out at 12.2 nM; in test [1] it was 2450 nM.
